Laboratory results taken from patent US7482358B2, “Imidazoline compounds” (Banyu Pharmaceutical Co., Ltd., priority 2000, dated 2009).
Where two headings read alike, the source gives them in different places.

Experiments:
human NPY Y5 receptor = target: T1, human NPY Y5 receptor (Homo sapiens, UniProt Q15761); assay: NPY binding inhibition test ([125I] peptide YY binding to membranes of cells expressing NPY Y5 receptor); details: against specific [125I] peptide YY binding, 25° C., 2 hours; read-out: IC50, inhibitory activities on NPY receptor binding
T1 construct: expressed in transfected cells; host or cells: COS-7, CHO and LM(tk-)
T1 sequence (Q15761 1-445): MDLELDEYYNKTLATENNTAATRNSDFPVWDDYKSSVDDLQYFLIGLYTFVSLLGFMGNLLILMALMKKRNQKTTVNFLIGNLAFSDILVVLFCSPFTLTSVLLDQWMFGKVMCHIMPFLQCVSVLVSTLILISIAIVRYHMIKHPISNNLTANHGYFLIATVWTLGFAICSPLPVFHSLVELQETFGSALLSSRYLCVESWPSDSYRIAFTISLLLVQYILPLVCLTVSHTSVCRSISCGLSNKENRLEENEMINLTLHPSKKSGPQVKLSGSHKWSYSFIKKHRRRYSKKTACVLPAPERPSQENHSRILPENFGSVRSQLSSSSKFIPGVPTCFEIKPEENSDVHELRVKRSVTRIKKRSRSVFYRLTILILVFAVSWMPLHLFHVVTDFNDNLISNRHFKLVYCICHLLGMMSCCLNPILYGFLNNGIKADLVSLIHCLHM
Experimental: These obtained expression vectors were transfected to host cells COS-7, CHO and LM(tk-)(American Type Culture Collection) by cationic lipid method (Confer Proceedings of the National Academy of Sciences of the United States of America, vol. 84:7413(1987)) to give recombinant cells which express NPY Y5 receptor.
A membrane sample prepared from the cells which expressed NPY Y5 receptor was incubated together with a test compound and (^125I) peptide YY (made by NEN) (20,00 cpm) in an assay buffer (25 mM Tris buffer, pH7.4, containing 10 mM magnesium chloride, 1 mM phenylmethylsulfonyl fluoride, 0.1% bacitracin and 0.5% bovine serum albumin) at 25° C. for 2 hours, then filtered through a glass filter GF/C and washed with 5 mM Tris buffer (pH7.4) containing 0.3% BSA. The radioactivity on the glass filter was measured. Nonspecific binding was measured in the presence of 1 μM peptide YY and a 50% Inhibitory Concentration (IC50) of the test compound against specific peptide YY binding was determined (Confer Endocrinology, vol. 131: 2090(1992)).

[1] = Test for pharmacokinetics; assay type: in vivo; details: male SD rats, overnight fasting, oral or intravenous
Experimental: Pharmacological Test 3 (Test for Pharmacokinetics)
The tested compound was administered orally or intravenously to male SD rats (7-10 weeks old, 200-400 g) under overnight fasting condition, and about 100 μL of blood was taken from tail vein using a heparinized capillary at predefined time points. The blood samples were separated by centrifuge (4° C., 6,000 rpm, for 10 minutes) to obtain plasma. To the plasma, 3-fold volume of ethanol containing the internal standard substances was added and the mixture was stirred, then left at −20° C. for 20 minutes, followed by centrifugation (4° C., 10,000 rpm for 10 minutes). The supernatant was analyzed by LC/MS/MS and then the concentration of the test compound in plasma was measured by the relative calibration curve method.

[2] = Brain and cerebrospinal fluid penetration test; assay type: in vivo, male SD rats; details: 2 hours after oral administration (10 mg/kg), rat; for concentration at 2 h: male, Sprague-Dawley
Experimental: Pharmacological Test 4 (Brain and Cerebrospinal Fluid Penetration Test)
The tested compound was administered orally or intravenously to male SD rats (7-10 weeks old, 200-400 g). The rats anesthetized with ether, and the all blood were taken at predefined time points with a heparinized syringe from the abdominal aorta. Further, the rats were cut the skin of occipital region of head and inserted a 30 G dental needle between cervical vertebrae, into subarachnoid cavity. And then, 50-100 μL of cerebrospinal fluid was collected in a 1 mL syringe through a tube connected with the 30G dental needle, followed by taking out the brain. To the plasma obtained from the centrifuged blood sample (4° C., 6,000 rpm, for 10 minutes), 3-fold volume of ethanol including the internal standard substances was added and the mixture was stirred. To the brain sample, 2 mL of water was added and the mixture was homogenized. To an aliquot of the homogenized mixture, 3-fold volume of ethanol including the internal standard substances was added, followed by stirring. To the cerebrospinal fluid, 3-fold volume of ethanol containing the internal standard substances was added, followed by stirring. The above samples were left at −20° C. for 20 minutes and separated by centrifuge (4° C., 12,000 g, for 10 minutes). The supernatant was analyzed by LC/MS/MS and then each concentration in plasma, brain and cerebrospinal fluid was measured by the relative calibration curve method.

Compound | melting point [°C] | also measured
CN(C)c1ccc(C2(c3ccccc3)CNC(c3cccc(C#N)c3)=N2)cc1 (stereo not shown) [Example 5-27, 2-(3-cyanophenyl)-4-(4-dimethylaminophenyl)-4-phenyl-2-imidazoline] | 210 to 213 | –
Fc1ccc(C2(c3ccc(F)cc3)CNC(c3cccc(OC(F)(F)F)c3)=N2)cc1 [Example 9-4, 4,4-bis(4-fluorophenyl)-2-(3-trifluoromethoxyphenyl)-2-imidazoline] | 114 to 117 | –
CS(=O)(=O)c1cccc(C2=NC(c3ccc(F)cc3)(c3ccc(F)cc3)CN2)c1 [Example 5-34, 4,4-bis(4-fluorophenyl)-2-(3-methylsulfonylphenyl)-2-imidazoline] | 209 to 212 | –
N#Cc1cccc(C2=NC(c3cccc(F)c3)(c3cccc(F)c3)CN2)c1 [Example 5-1, 2-(3-cyanophenyl)-4,4-bis(3-fluorophenyl)-2-imidazoline] | – | IC50 (human NPY Y5 receptor): 2.3 nM
CC1NC(c2cnccn2)=NC1(c1ccc(F)cc1)c1ccc(F)cc1 (stereo not shown) [Example 7, 4,4-bis(4-fluorophenyl)-5-methyl-2-pyrazinyl-2-imidazoline] | – | IC50 (human NPY Y5 receptor): 3.4 nM; half-life ([1]; Sprague-Dawley, rat, plasma, read-out: half-life in blood (converted)): 5.1 h; biological availability ratio [1]: 35%; cerebral concentration [2]: 2.95 nM/g; concentration at 2 h ([2]; cerebrospinal fluid, read-out: cerebrospinal concentration): 32 nM; concentration at 2 h ([2]; plasma, read-out: plasma concentration): 730 nM
N#Cc1cccc(C2=NC(c3ccccc3)(C3CCCCC3)CN2)c1 (stereo not shown) [Example 5-42, 2-(3-cyanophenyl)-4-cyclohexyl-4-phenyl-2-imidazoline] | 151 to 152 | –
c1ccc(C2(c3ccccc3)CNC(c3cnccn3)=N2)cc1 [Example 5-31, 4,4-diphenyl-2-pyrazinyl-2-imidazoline] | 183 to 184 | –

Now from value to molecule, other results behind:

melting point [°C] | Compound | also measured
169 to 171 | N#Cc1ccnc(C2=NC(c3ccc(F)cc3)(c3ccnc(F)c3)CN2)c1 (stereo not shown) [Example 14-2, 2-(4-cyano-2-pyridyl)-4-(4-fluorophenyl)-4-(2-fluoro-4-pyridyl)-2-imidazoline] | –
179 to 180 | Cc1ccc(C2(c3ccccc3)CNC(c3cccc(C#N)c3)=N2)cc1 (stereo not shown) [Example 5-11, 2-(3-cyanophenyl)-4-(4-methylphenyl)-4-phenyl-2-imidazoline] | –
156 to 160 | Fc1ccc(C2(c3ccc(F)cc3)CNC(c3cccs3)=N2)cc1 [Example 9-7, 4,4-bis(4-fluorophenyl)-2-(2-thienyl)-2-imidazoline] | –
160 to 163 | Fc1ccc(C2(c3ccc(F)cc3)CNC(c3ccsc3)=N2)cc1 [Example 9-10, 4,4-bis(4-fluorophenyl)-2-(3-thienyl)-2-imidazoline] | –
148 to 149 | Cc1cccc(C2=NC(c3ccc(F)cc3)(c3ccc(F)cc3)CN2)c1 [Example 9-6, 4,4-bis(4-fluorophenyl)-2-(3-methylphenyl)-2-imidazoline] | –
117 to 118 | N#Cc1cccc(C2=NC(c3ccccc3)(C3CCC3)CN2)c1 (stereo not shown) [Example 5-46, 2-(3-cyanophenyl)-4-cyclobutyl-4-phenyl-2-imidazoline] | –
156 to 158 | O=[N+]([O-])c1cccc(C2=NC(c3ccc(F)cc3)(c3ccc(F)cc3)CN2)c1 [Example 5-13, 4,4-bis(4-fluorophenyl)-2-(3-nitrophenyl)-2-imidazoline] | –
